Measured values taken from ChEMBL document CHEMBL5678816, “A Next-Generation TRK Kinase Inhibitor Overcomes Acquired Resistance to Prior TRK Kinase Inhibition in Patients with TRK Fusion-Positive Solid Tumors” (Cancer Discov, 2017).
pIC50: −log10 of the molar value. Calls of active or inactive are those of the source. No cut-off for these calls is given here.

What was measured:
[1] = Inhibition of human extracellular domain deleted TRKA G667S mutant expressed in mouse NIH3T3 cells assessed as reduction in TRKA phosphorylation incubated for 1 hrs by ELISA; assay type: cell-based; conditions: NIH3T3, 1 h
[2] = Inhibition of cell proliferation in ETV6-NTRK3 fusion positive human MO-91 cells incubated for 72 hrs by DAPI staining based analysis; assay type: functional; conditions: MO-91, 72 h
[3] = molecular target: SRSF protein kinase 3 (Homo sapiens) (UniProt Q9UPE1); experiment: Inhibition of MSSK1 (unknown origin) at 1 uM in presence of ATP relative to control; values are per cent of control
[4] = molecular target: Tyrosine-protein kinase Lyn (Homo sapiens) (UniProt P07948); experiment: Inhibition of Lyn (unknown origin) at 1 uM in presence of ATP relative to control; values are per cent of control
[5] = molecular target: Tyrosine-protein kinase ABL2 (Homo sapiens) (UniProt P42684); experiment: Inhibition of Abl2 (unknown origin) at 1 uM in presence of ATP relative to control; values are per cent of control
[6] = molecular target: Serine/threonine-protein kinase 3 (Homo sapiens) (UniProt Q13188); experiment: Inhibition of MST2 (unknown origin) at 1 uM in presence of ATP relative to control; values are per cent of control
Serine/threonine-protein kinase 3 (Homo sapiens), sequence (Q13188 whole entry): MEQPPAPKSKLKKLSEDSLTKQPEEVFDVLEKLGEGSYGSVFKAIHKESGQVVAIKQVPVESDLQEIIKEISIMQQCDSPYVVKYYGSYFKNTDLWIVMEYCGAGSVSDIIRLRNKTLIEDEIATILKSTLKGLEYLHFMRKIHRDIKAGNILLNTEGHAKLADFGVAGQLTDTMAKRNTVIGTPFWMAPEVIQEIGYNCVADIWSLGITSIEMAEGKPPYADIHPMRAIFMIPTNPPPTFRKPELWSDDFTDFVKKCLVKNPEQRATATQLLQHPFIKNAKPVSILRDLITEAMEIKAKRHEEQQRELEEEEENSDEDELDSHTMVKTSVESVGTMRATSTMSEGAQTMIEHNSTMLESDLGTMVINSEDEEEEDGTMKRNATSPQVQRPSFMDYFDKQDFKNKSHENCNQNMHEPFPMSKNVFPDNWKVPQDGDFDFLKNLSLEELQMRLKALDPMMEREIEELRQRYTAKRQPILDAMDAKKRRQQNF

647-V = experiment: Inhibition of cell proliferation in human 647-V cells upto 10 umol/L incubated for 72 hrs by DAPI staining based analysis; assay type: functional; conditions: dose <= 10.0 µmol/L
[7] = molecular target: Ribosomal protein S6 kinase alpha-1 (Homo sapiens) (UniProt Q15418); experiment: Inhibition of Rsk1 (unknown origin) at 1 uM in presence of ATP relative to control; values are per cent of control
Ribosomal protein S6 kinase alpha-1 (Homo sapiens), sequence (Q15418 whole entry): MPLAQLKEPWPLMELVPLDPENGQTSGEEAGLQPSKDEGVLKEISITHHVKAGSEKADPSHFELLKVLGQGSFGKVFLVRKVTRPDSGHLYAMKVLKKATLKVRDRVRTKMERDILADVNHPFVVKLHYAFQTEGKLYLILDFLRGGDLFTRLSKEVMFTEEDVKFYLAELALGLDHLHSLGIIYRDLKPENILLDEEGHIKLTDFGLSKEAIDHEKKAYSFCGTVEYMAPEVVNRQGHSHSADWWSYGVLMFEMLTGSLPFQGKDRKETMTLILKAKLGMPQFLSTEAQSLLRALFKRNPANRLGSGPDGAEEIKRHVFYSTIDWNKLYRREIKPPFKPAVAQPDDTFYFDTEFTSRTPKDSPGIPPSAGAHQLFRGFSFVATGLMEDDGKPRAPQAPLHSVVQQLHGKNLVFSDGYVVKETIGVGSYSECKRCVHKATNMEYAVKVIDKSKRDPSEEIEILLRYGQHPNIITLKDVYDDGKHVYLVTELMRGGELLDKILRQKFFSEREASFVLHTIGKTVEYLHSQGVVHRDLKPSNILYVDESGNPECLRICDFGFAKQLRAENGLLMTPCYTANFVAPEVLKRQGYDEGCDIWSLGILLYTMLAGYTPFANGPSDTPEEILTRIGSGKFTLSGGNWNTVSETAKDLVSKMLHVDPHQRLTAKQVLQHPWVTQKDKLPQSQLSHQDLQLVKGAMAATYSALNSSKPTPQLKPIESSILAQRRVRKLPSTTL

[8] = molecular target: Ribosomal protein S6 kinase alpha-2 (Homo sapiens) (UniProt Q15349); experiment: Inhibition of Rsk3 (unknown origin) at 1 uM in presence of ATP relative to control; values are per cent of control
Ribosomal protein S6 kinase alpha-2 (Homo sapiens), sequence (Q15349 whole entry): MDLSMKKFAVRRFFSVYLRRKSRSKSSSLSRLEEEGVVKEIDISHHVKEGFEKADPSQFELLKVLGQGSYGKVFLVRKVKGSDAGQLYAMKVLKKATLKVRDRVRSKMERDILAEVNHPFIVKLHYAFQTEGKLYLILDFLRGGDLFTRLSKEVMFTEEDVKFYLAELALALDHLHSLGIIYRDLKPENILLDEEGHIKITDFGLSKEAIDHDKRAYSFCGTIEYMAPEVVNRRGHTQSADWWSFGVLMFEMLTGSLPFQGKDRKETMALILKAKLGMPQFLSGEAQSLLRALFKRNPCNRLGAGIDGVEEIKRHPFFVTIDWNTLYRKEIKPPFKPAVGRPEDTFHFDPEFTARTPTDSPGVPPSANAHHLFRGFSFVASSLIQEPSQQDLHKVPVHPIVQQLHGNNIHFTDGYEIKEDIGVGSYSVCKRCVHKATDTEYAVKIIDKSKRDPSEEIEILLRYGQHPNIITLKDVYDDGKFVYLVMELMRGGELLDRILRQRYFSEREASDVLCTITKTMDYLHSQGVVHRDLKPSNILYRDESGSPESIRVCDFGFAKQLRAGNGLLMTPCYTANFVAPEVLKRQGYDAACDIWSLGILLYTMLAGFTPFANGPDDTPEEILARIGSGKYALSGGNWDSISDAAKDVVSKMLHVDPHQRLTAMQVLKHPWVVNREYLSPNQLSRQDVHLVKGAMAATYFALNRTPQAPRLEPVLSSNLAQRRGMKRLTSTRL

NCI-H661 = experiment: Inhibition of cell proliferation in human NCI-H661 cells upto 10 umol/L incubated for 72 hrs by DAPI staining based analysis; assay type: functional; conditions: dose <= 10.0 µmol/L
[9] = Cmin in pediatric patient with recurrent ETV6-NTRK3-rearranged infantile fibrosarcoma at 60 mg administered twice a day as liquid formulation for 29 day and measured 12 hrs post dose by LC-MS/MS analysis; assay type: ADME; conditions: human, in vivo, read-out: Cmin
[10] = molecular target: Protein kinase C alpha type (Homo sapiens) (UniProt P17252); experiment: Inhibition of PKCalpha (unknown origin) at 1 uM in presence of ATP relative to control; values are per cent of control
Homo sapiens [11] = species on record: Homo sapiens; experiment: Inhibition of CK1_y (unknown origin) at 1 uM in presence of ATP relative to control; values are per cent of control
[12] = Cmin in pediatric patient with recurrent ETV6-NTRK3-rearranged infantile fibrosarcoma at 20 mg administered twice a day as liquid formulation for 1 day and measured 12 hrs post dose by LC-MS/MS analysis; assay type: ADME; conditions: human, in vivo, read-out: Cmin
[13] = Toxicity in nu/nu NCr mouse implanted with mouse NIH3T3 cells harboring extracellular domain deleted TRKA assessed as body weight loss at 30 to 300 mg/kg, po administered twice daily for 10 days relative to control; assay type: organism-based; conditions: in vivo, 240 h, dose 30-300 mg/kg, time 10 day
[14] = molecular target: Activated CDC42 kinase 1 (Homo sapiens) (UniProt Q07912); experiment: Inhibition of TNK2 (unknown origin) at 1 uM in presence of ATP relative to control; values are per cent of control
[15] = molecular target: RAC-beta serine/threonine-protein kinase (Homo sapiens) (UniProt P31751); experiment: Inhibition of AKT2 (unknown origin) at 1 uM in presence of ATP relative to control; values are per cent of control
[16] = molecular target: Mitogen-activated protein kinase 3 (Homo sapiens) (UniProt P27361); experiment: Inhibition of ERK1 (unknown origin) at 1 uM in presence of ATP relative to control; values are per cent of control
SU-DHL10 = experiment: Inhibition of cell proliferation in human SU-DHL-10 cells upto 10 umol/L incubated for 72 hrs by DAPI staining based analysis; assay type: functional; conditions: dose <= 10.0 µmol/L
[17] = molecular target: Cytoplasmic tyrosine-protein kinase BMX (Homo sapiens) (UniProt P51813); experiment: Inhibition of Bmx (unknown origin) at 1 uM in presence of ATP relative to control
EFM-19 = experiment: Inhibition of cell proliferation in human EFM-19 cells upto 10 umol/L incubated for 72 hrs by DAPI staining based analysis; assay type: functional; conditions: dose <= 10.0 µmol/L
HMCB cell line = experiment: Inhibition of cell proliferation in human HMCB cells upto 10 umol/L incubated for 72 hrs by DAPI staining based analysis; assay type: functional; conditions: dose <= 10.0 µmol/L
TCC-SUP = experiment: Inhibition of cell proliferation in human TCC-SUP cells upto 10 umol/L incubated for 72 hrs by DAPI staining based analysis; assay type: functional; conditions: dose <= 10.0 µmol/L
Homo sapiens [18] = species on record: Homo sapiens; experiment: Inhibition of p70S6K (unknown origin) at 1 uM in presence of ATP relative to control; values are per cent of control
[19] = molecular target: Insulin receptor (Homo sapiens) (UniProt P06213); experiment: Inhibition of IR (unknown origin) at 1 uM in presence of ATP relative to control; values are per cent of control
Insulin receptor (Homo sapiens), sequence (P06213 28-758 limits assumed): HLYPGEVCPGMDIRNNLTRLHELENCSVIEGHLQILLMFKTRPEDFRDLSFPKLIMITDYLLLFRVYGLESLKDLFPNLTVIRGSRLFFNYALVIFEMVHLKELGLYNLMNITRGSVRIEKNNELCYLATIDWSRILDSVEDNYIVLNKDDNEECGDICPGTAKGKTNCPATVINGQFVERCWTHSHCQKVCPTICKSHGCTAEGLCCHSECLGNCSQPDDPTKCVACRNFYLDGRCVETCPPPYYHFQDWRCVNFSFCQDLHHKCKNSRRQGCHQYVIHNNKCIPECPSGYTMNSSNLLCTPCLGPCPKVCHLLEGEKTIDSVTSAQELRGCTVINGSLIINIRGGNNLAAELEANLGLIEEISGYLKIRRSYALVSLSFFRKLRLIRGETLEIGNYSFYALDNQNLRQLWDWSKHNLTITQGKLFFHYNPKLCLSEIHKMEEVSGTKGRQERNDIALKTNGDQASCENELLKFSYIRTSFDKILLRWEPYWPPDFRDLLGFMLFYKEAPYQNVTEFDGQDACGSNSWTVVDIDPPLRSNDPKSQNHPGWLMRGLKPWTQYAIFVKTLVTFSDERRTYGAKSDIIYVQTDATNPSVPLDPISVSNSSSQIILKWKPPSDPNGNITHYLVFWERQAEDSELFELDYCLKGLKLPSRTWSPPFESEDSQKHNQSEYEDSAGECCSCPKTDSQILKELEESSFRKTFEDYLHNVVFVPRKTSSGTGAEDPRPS
Insulin receptor (Homo sapiens), sequence (P06213 763-1382 limits assumed): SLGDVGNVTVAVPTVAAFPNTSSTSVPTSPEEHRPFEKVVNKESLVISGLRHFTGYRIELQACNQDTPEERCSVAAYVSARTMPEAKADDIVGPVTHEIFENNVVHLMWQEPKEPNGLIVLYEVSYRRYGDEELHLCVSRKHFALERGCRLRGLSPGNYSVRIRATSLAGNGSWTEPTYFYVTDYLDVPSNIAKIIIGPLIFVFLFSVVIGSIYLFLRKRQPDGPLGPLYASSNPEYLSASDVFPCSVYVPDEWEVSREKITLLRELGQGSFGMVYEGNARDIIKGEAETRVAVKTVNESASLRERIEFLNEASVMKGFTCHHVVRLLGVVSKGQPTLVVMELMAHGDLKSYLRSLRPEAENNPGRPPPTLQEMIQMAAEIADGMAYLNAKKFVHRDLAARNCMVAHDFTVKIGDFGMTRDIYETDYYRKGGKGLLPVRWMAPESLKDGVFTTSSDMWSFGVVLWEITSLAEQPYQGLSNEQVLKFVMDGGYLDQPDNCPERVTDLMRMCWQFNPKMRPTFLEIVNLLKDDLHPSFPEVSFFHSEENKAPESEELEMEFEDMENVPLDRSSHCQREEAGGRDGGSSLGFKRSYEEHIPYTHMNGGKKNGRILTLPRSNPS

[20] = molecular target: Macrophage colony-stimulating factor 1 receptor (Homo sapiens) (UniProt P07333); experiment: Inhibition of Fms (unknown origin) at 1 uM in presence of ATP relative to control; values are per cent of control
Macrophage colony-stimulating factor 1 receptor (Homo sapiens), sequence (P07333 whole entry): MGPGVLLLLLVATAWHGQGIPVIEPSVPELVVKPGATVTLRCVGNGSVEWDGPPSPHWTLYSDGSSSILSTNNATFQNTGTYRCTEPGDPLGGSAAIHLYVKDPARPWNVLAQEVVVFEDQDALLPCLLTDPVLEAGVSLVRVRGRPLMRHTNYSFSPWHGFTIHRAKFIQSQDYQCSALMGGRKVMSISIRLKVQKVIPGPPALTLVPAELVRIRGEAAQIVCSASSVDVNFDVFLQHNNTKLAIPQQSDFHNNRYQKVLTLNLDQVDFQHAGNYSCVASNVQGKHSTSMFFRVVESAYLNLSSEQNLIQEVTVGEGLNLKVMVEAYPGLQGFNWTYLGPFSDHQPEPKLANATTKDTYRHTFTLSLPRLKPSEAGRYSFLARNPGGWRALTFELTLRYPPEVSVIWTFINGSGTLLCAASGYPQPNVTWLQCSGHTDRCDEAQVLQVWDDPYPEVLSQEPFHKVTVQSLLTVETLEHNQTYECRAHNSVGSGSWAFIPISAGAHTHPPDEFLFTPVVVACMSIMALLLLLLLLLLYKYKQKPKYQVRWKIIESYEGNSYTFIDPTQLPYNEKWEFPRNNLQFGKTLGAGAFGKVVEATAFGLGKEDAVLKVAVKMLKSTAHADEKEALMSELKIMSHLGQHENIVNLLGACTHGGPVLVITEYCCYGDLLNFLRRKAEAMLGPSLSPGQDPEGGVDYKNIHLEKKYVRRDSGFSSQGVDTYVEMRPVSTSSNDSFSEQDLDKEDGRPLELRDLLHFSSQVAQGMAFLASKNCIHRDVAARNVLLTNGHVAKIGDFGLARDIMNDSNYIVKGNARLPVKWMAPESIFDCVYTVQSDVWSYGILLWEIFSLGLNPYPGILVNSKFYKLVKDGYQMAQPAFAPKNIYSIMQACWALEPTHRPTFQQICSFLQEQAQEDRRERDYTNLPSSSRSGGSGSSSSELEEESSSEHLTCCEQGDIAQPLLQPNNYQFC

[21] = molecular target: BDNF/NT-3 growth factors receptor (Homo sapiens) (UniProt Q16620); experiment: Inhibition of TrkB (unknown origin) at 1 uM in presence of ATP relative to control; values are per cent of control
[22] = Cmax in adult patient with recurrent LMNA-NTRK1 rearranged colorectal cancer at 100 mg administered twice a day as powder-in-capsule or liquid formulation for 22 days by LC-MS/MS analysis; assay type: ADME; conditions: human, in vivo, oral, time 22 day
FaDu = experiment: Inhibition of cell proliferation in human FaDu cells upto 10 umol/L incubated for 72 hrs by DAPI staining based analysis; assay type: functional; conditions: dose <= 10.0 µmol/L
[23] = molecular target: Serine/threonine-protein kinase 24 (Homo sapiens) (UniProt Q9Y6E0); experiment: Inhibition of MST3 (unknown origin) at 1 uM in presence of ATP relative to control; values are per cent of control
NIH3T3 = assay type: functional, organism-based; conditions: Mus musculus, dose 30-300 mg/kg, route po, time 9.0 day

pIC50 [1]: 7.60 | residual activity [3]: 122% | residual activity [4]: 98% | residual activity [5]: 105% | residual activity [6]: 112% | residual activity [7]: 109% | residual activity [8]: 106% | concentration at 708 h [9]: 0.012 µg/mL | residual activity [10]: 107% | residual activity (Homo sapiens [11]): 114% | concentration at 36 h [12]: < 0.001 µg/mL | residual activity [14]: 10% | residual activity [15]: 121% | residual activity [16]: 111% | inhibition [17]: 15% | residual activity (Homo sapiens [18]): 117% | residual activity [19]: 92% | residual activity [20]: 87.5% | residual activity [21]: 0% | Cmax [22]: 0.8 µg/mL | residual activity [23]: 125%
Structure (SMILES): C[C@@H]1CCc2ncc(F)cc2[C@H]2CCCN2c2ccn3ncc(c3n2)C(=O)N1 [SELITRECTINIB]
pIC50 [2]: ≥ 8.30 | inhibition (647-V): inactive | inhibition (NCI-H661): inactive | Activity [13]: < 5% | inhibition (SU-DHL10): inactive | inhibition (EFM-19): inactive | inhibition (HMCB cell line): inactive | inhibition (TCC-SUP): inactive | inhibition (FaDu): inactive | Activity (NIH3T3): Active
